Measured values published in ChEMBL document CHEMBL1201862, “PubChem BioAssay data set” (2004).
The source made the active and inactive calls.

Legend:
[1] = NIH-3T3 fibroblast cytotoxicity, dose response, cytotoxicity control, cell-based, fluorescence, Alamar Blue, secondary assay (AID 2327); type: functional;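 further: NIH-3T3 mouse fibroblasts cultured with fluconazole at 8 µg/mL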
[2] = system: Streptococcus sp. 'group A'; test: growth inhibition of control SK(-) GAS strain, dose response, counter-screen for streptokinase expression inhibitor project, luminescence, kanamycin, BacTiterGlo, confirmation (AID 1900); type: functional, organism-based
Streptokinase A = biological target: T1, Streptokinase A (Streptococcus pyogenes serotype M1, UniProt P10520); test: S. pyogenes streptokinase expression inhibitors, potency, dose response, plasminogen activation absorbance, OD405 (AID 1914); type: functional, Streptococcus pyogenes M1 GAS;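 further: secreted streptokinase activity via plasminogen activation per viability signal from cell pellet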
T1 sequence (P10520 whole entry): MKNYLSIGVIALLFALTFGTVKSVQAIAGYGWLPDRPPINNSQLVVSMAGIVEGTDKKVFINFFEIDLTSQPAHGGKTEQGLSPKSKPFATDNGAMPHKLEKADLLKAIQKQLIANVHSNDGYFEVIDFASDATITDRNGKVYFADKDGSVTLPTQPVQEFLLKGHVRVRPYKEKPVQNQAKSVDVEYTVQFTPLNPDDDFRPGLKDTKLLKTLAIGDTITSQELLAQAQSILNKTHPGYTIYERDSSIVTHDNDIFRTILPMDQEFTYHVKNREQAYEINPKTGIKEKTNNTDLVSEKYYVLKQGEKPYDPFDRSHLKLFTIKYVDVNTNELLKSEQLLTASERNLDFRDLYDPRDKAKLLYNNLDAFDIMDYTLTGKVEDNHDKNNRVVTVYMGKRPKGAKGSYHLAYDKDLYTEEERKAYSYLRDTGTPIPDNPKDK

[3] = C. albicans growth with fluconazole, confirmation, fluorescence, retest (AID 2467); type: functional, cell-based
Streptococcus = test: Group A Streptococcus viability loss, dose response, counter-screen for streptokinase expression inhibitor project, luminescence, BacTiterGlo (AID 1915); type: functional, organism-based;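 further: potency for reduction of bacterial viability or growth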
CAAX prenyl protease 2 [4] = biological target: CAAX prenyl protease 2 (Saccharomyces cerevisiae S288c, UniProt Q03530); type: biochemical
CAAX prenyl protease 1 = CAAX prenyl protease 1 (Saccharomyces cerevisiae S288c, UniProt P47154); test: Ste24 protease inhibitors, dose response, biochemical, S. cerevisiae, plate reader, cherry-pick (AID 488815)
CAAX prenyl protease 2 [5] = biological target: CAAX prenyl protease 2 (Homo sapiens, UniProt Q9Y256); test: human Rce1 protease inhibitors, dose response, biochemical, yeast membranes, quenched-peptide fluorescence, cherry-pick (AID 588849)
[6] = biological target: T2, Short transient receptor potential channel 4 (Mus musculus, UniProt Q9QUQ5); test: SAR Analysis for the identification of selective inhibits of the transient receptor potential cation channel C4 (TRPC4): Automated Electrophysiology. [Related pubchem assays (depositor defined):AID2256]; type: functional
T2 sequence (Q9QUQ5 whole entry): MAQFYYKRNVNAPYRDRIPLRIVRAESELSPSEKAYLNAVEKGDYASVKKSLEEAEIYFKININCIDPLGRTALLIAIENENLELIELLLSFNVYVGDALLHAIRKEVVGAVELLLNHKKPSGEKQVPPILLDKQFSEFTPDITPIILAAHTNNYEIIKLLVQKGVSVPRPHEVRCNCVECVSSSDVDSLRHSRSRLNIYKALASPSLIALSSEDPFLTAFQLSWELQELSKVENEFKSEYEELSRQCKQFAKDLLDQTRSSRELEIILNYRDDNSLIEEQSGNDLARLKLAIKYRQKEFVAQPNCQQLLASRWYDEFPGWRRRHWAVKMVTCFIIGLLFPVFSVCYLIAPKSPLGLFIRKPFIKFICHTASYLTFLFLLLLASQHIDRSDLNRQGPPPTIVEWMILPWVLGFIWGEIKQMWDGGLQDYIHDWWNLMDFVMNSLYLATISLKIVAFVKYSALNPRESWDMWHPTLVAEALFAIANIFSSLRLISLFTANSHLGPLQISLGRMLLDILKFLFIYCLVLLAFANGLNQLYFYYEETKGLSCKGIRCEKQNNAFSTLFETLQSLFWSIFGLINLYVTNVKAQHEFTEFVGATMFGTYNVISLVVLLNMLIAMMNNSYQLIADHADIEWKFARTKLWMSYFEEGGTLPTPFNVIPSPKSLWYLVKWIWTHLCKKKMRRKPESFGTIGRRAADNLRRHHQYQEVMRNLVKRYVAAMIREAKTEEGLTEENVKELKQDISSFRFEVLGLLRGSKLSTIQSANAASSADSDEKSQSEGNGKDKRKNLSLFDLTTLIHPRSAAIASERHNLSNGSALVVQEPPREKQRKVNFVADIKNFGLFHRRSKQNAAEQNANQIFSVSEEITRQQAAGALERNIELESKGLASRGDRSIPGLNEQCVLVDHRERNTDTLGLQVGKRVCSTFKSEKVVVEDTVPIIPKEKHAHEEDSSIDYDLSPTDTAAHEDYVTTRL

[7] = biological target: T2, Short transient receptor potential channel 4; test: TRPC4 inhibition under acetylcholine activation, SAR follow-up, cell-based, acetylcholine stimulus, HEK293 TRPC4, Fluo-4 (AID 492996); type: functional
[8] = biological target: Short transient receptor potential channel 6 (Mus musculus, UniProt Q61143); test: TRPC6 inhibition potency of TRPC4 inhibitor analogs, dose response, selectivity assay for selective TRPC4 inhibitor project, HEK293 cells, membrane potential dye, IC50 (AID 492987); type: functional, cell-based
[9] = biological target: T2, Short transient receptor potential channel 4; test: TRPC4 inhibitor concentration-response, dose response, cell-based, HEK293 TRPC4/mu-opioid, DAMGO stimulus, Fluo-4 (AID 492994); type: functional
Jurkat = test: SAR Analysis of small molecule inhibitors of […] specific antigen receptor-induced NF-kB activation in a Jurkat cell line using a luminescence assay - Set 3. [Related pubchem assays (depositor defined):AID435022, AID435025, AID465]; type: functional, cell-based; conditions: Homo sapiens
HEK293 [10] = test: SAR Analysis of small molecule inhibitors of B-cell specific antigen receptor-induced NF-kB activation in a HEK-293T cell line using a luminescence assay - Set 2. [Related pubchem assays (depositor defined):AID435022, AID435025, AID489021]; type: functional, cell-based; conditions: Homo sapiens
HEK293 [11] = test: cytotoxicity in HEK293T NF-kB-Luc cells, SAR follow-up, cytotoxicity control for NF-kB activator project, cell-based, resazurin fluorescence (AID 493251); type: functional; conditions: Homo sapiens
[12] = biological target: Luciferin 4-monooxygenase (Photuris pensylvanica, UniProt Q27757); test: firefly luciferase enzyme inhibitors, dose response, counter-screen for HSF-1 reporter inhibitor project, biochemical, Cell Titer Glo, luminescence, cherry-picks (AID 588847)
Chain of Luciferin 4-monooxygenase (Q27757 whole entry): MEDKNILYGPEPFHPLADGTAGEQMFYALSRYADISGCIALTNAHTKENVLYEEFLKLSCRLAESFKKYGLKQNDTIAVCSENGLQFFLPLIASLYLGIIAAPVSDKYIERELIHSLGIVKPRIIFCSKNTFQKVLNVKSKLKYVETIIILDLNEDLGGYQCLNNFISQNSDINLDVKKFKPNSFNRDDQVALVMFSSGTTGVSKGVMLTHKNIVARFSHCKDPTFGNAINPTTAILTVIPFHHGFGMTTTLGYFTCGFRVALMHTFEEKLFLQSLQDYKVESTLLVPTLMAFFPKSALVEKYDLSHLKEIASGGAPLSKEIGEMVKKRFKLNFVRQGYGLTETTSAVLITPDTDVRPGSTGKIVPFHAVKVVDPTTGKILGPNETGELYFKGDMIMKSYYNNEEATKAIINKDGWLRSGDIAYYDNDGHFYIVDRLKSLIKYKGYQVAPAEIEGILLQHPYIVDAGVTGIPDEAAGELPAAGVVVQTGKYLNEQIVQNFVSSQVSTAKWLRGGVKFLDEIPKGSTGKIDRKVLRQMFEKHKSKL

Chain of CAAX prenyl protease 2 (Homo sapiens, UniProt Q9Y256) (Q9Y256 whole entry): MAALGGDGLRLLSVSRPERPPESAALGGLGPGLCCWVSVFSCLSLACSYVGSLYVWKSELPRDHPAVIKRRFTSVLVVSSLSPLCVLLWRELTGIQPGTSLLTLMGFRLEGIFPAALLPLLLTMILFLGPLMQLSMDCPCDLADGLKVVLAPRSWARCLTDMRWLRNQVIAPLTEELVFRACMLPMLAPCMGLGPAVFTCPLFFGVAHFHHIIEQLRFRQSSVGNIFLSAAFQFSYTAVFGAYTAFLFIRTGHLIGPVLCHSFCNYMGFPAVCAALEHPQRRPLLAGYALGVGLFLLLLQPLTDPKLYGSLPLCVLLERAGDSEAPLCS
Chain of CAAX prenyl protease 2 (Saccharomyces cerevisiae S288c, UniProt Q03530) (Q03530 whole entry): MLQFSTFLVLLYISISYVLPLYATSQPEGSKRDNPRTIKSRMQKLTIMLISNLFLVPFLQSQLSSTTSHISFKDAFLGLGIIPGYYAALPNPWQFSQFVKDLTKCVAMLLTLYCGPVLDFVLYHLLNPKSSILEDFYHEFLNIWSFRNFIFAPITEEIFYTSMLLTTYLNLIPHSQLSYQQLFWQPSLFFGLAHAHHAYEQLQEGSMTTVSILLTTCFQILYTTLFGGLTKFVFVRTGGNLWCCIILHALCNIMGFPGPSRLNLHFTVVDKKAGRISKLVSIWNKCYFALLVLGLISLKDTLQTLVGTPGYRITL
Chain of Short transient receptor potential channel 6 (Q61143 whole entry): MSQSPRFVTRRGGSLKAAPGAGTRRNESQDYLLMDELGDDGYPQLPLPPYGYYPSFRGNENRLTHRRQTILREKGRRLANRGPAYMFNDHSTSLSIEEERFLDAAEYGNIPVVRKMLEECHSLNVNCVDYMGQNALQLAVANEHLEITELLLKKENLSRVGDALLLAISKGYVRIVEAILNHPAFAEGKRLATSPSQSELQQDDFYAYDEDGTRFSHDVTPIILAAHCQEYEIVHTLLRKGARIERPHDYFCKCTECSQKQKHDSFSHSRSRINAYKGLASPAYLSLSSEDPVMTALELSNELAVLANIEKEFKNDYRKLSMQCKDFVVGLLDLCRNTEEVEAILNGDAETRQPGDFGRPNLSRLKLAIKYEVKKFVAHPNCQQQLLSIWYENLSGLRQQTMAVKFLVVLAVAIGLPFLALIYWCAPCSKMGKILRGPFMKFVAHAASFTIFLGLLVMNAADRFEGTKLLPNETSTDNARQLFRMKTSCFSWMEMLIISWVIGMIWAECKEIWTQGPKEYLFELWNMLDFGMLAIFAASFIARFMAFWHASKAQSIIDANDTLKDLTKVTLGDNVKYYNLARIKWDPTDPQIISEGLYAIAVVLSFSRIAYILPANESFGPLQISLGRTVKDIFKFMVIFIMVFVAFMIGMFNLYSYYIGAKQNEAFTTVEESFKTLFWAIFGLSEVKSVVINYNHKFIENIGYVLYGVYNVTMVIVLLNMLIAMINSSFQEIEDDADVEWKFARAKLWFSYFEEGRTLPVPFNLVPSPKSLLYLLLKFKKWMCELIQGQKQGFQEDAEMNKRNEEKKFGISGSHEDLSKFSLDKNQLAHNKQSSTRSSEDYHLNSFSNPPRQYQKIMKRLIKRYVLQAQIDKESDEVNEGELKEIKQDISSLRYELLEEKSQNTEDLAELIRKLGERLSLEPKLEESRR
Chain of CAAX prenyl protease 1 (P47154 whole entry): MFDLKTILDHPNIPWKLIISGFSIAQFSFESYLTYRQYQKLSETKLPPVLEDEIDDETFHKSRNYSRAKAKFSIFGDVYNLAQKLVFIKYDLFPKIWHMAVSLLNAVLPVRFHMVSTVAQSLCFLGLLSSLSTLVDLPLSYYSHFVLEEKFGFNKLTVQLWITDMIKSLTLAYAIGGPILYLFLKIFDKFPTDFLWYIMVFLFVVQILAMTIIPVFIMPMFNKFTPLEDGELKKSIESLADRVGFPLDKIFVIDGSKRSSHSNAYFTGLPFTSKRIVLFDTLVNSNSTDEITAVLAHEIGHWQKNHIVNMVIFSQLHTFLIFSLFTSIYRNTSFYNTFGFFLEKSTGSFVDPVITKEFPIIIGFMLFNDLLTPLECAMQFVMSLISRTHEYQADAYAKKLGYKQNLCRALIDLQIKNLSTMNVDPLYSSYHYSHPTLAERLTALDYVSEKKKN

With `CCCCCc1ccc(OCCOCC[n+]2cn(C)c3ccccc32)c(CCCCC)c1` the EC50 [1] was > 150 µM (inactive), the EC50 [2] was 6.43 µM (active) and the EC50 (Streptokinase A) was 13.5 µM (active). For the same compound, the EC50 [3] was 1.31 µM (active), the EC50 (Streptococcus) was 16.1 µM (inconclusive) and the AC50 (CAAX prenyl protease 2 [4]) was 9.1 µM (active). The AC50 (CAAX prenyl protease 1) was 13.1 µM (active) and the AC50 (CAAX prenyl protease 2 [5]) was 17.9 µM (active).

For `Cc1cc(N2CCN(c3ccncc3)CC2)nc2ccccc12`, the IC50 [6] was 8.18 µM (active), the IC50 [7] was 15.2 µM (active) and the IC50 [8] was 11.4 µM (active). The IC50 [9] was 19.9 µM (active).

In the case of `CCOc1ccc(-c2nc(CSCC(=O)NCCN3CCCC3)c(C)o2)cc1`, the IC50 (Jurkat) is reported as 10.4 µM (active), the IC50 (HEK293 [10]) is reported as 28.4 µM (inactive) and the IC50 (HEK293 [11]) is reported as > 80 µM (inactive).

For `C[C@]12C=CC(=O)C=C1CC[C@@H]1[C@@H]2[C@@H](O)C[C@@]2(C)[C@H]1CC[C@]2(O)C(=O)CO` [PREDNISOLONE], the AC50 [12] was > 52 µM (inactive).
